Source: patent US20070027120A1, “Methods of using vitamin D compounds in the treatment of myelodysplastic syndromes” (priority 2002, published 2007)
Like-named read-outs stand apart in the source and are kept apart here.

How the values were obtained:
[1] = tested on: low risk MDS and refractory anemia unresponsive to erythropoietin; assay: Phase 2 trial of high dose pulse administration of calcitriol; format: in vivo, human
Description: Patients having low risk MDS and refractory anemia unresponsive to erythropoietin were entered into a Phase 2 trial to evaluate the effect of high dose pulse administration of calcitriol. These patients are red blood cell transfusion dependent because of severe anemia. Patients were administered weekly oral calcitriol at a dose of 45 μg for 20 consecutive weeks. The calcitriol was formulated in a composition containing the following excipients with the amount given in approximate percentage by weight: 65% MIGLYOL 812N®, 30% […] 44/14®, 5% vitamin-E TPGS and about 0.05% each of butylated hydroxytoluene (BHT) and butylated hydroxyanisole (BHA).

[2] = relative to calcitriol; cited from earlier work
MDS [3] = details: cited from earlier work
refractory malignancies = details: weekly HDPA; cited from earlier work
MDS [4] = details: 75 mg/m^2/day subcutaneously for 7 days out of 28; cited from earlier work
MDS [5] = details: cited from earlier work; remark: listed apart in the source
[6] = Patient #1, 45 μg oral weekly for 20 weeks
[7] = Patient #3, 45 μg oral weekly for 20 weeks

C=C1/C(=C/C=C2/CCC[C@@]3(C)C2CC[C@@H]3[C@H](C)CCCC(C)(C)O)C[C@@H](O)C[C@@H]1O (stereo in doubt) [calcitriol, 1α,25-dihydroxycholecalciferol]
protocol defined response [1, 6]: minor response (A minor erythroid responder is a subject with a baseline hemoglobin of less than 11 g/dL who experiences an increase of 1 to 2 g/dL from baseline) | rise in hemoglobin as compared to baseline [1, 6]: more than one | decrease in required red blood cell transfusions as compared to baseline ([1]; Patient #2, 45 μg oral weekly for 20 weeks): 50% | protocol defined response [1, 7]: major response (A major erythroid responder is a subject with a baseline hemoglobin of less than 11 g/dL who experiences an increase of greater than or equal to 2 g/dL from the baseline) | rise in hemoglobin as compared to baseline [1, 7]: more than two | calcemic index [2]: 1 | dose at which hypercalcemia was induced (MDS [3]; daily administration (Koeffler et al.)): 2 µg/day | maximum dose administered without hypercalcemia (MDS [3]; subjects with MDS (Mellibovsky et al.)): 0.75 µg/day | dose-limiting toxicity (refractory malignancies): no dose-limiting toxicity | mean peak calcitriol levels (refractory malignancies): within the therapeutic range

Nc1ncn([C@@H]2O[C@H](CO)[C@@H](O)[C@H]2O)c(=O)n1 [5-azacytidine]
patients with a complete response (MDS [4]): 7% | patients with at least a partial response (MDS [4]): ~60%

C=C1/C(=C\C=C2/CCC[C@]3(C)[C@@H]([C@H](C)/C=C/[C@@H](O)C4CC4)CC[C@@H]23)C[C@@H](O)C[C@@H]1O [calcipotriol]
calcemic index [2]: about 0.01

EPO: erythropoietin, hematopoietic growth factor
subjects who respond (MDS [5]; EPO administered with G-CSF): about 40% | subjects who respond (MDS [5]; EPO alone): about 20% | rate of responsiveness (MDS [5]; refractory anemia and refractory anemia with ring sideroblasts): 21% | rate of responsiveness (MDS [5]; refractory anemia with excess blasts): 8%
